ChEMBL document CHEMBL5724806, “Unraveling interindividual differences and functional consequences of gut microbial metabolism of immunosuppressants” (2024)

How the values were obtained:
Type in all cases: ADME
[1] = The drug is tested on Alloscardovia omnicolens strain: DSM21503 for biotransformation under anaerobic condition. The drug concentrations were measured over 6 timepoints collected between 0 and 12 hours of incubation by liquid-chromatography-coupled mass spectrometry (LC–MS); set-up: dose 5 uM, timepoint 0, 1.5, 3, 6, 9, 12 hours; conditions: 5 µM
[2] = The drug is tested on Bacteroides thetaiotaomicron strain: DSM2079 for biotransformation under anaerobic condition. The drug concentrations were measured over 6 timepoints collected between 0 and 12 hours of incubation by liquid-chromatography-coupled mass spectrometry (LC–MS); set-up: dose 5 uM, timepoint 0, 1.5, 3, 6, 9, 12 hours; conditions: 5 µM
[3] = The drug is tested on Bacteroides xylanisolvens strain: HM 722 for biotransformation under anaerobic condition. The drug concentrations were measured over 6 timepoints collected between 0 and 12 hours of incubation by liquid-chromatography-coupled mass spectrometry (LC–MS); set-up: dose 5 uM, timepoint 0, 1.5, 3, 6, 9, 12 hours; conditions: 5 µM
[4] = The drug is tested on Blautia hansenii strain: DSM20583 for biotransformation under anaerobic condition. The drug concentrations were measured over 6 timepoints collected between 0 and 12 hours of incubation by liquid-chromatography-coupled mass spectrometry (LC–MS); set-up: dose 5 uM, timepoint 0, 1.5, 3, 6, 9, 12 hours; conditions: 5 µM
[5] = The drug is tested on Clostridium scindens strain: DSM5676 for biotransformation under anaerobic condition. The drug concentrations were measured over 6 timepoints collected between 0 and 12 hours of incubation by liquid-chromatography-coupled mass spectrometry (LC–MS); set-up: dose 5 uM, timepoint 0, 1.5, 3, 6, 9, 12 hours; conditions: 5 µM
[6] = The drug is tested on Eubacterium eligens strain: DSM3376 for biotransformation under anaerobic condition. The drug concentrations were measured over 6 timepoints collected between 0 and 12 hours of incubation by liquid-chromatography-coupled mass spectrometry (LC–MS); set-up: dose 5 uM, timepoint 0, 1.5, 3, 6, 9, 12 hours; conditions: lachnospira eligens, 5 µM
[7] = The drug is tested on Eubacterium hallii strain: DSM3353 for biotransformation under anaerobic condition. The drug concentrations were measured over 6 timepoints collected between 0 and 12 hours of incubation by liquid-chromatography-coupled mass spectrometry (LC–MS); set-up: dose 5 uM, timepoint 0, 1.5, 3, 6, 9, 12 hours; conditions: anaerobutyricum hallii, 5 µM
[8] = The drug is tested on Faecalibacterium prausnitzii strain: DSM17677 for biotransformation under anaerobic condition. The drug concentrations were measured over 6 timepoints collected between 0 and 12 hours of incubation by liquid-chromatography-coupled mass spectrometry (LC–MS); set-up: dose 5 uM, timepoint 0, 1.5, 3, 6, 9, 12 hours; conditions: faecalibacterium duncaniae, 5 µM
[9] = The drug is tested on Lactobacillus gasseri strain: DSM20243 for biotransformation under anaerobic condition. The drug concentrations were measured over 6 timepoints collected between 0 and 12 hours of incubation by liquid-chromatography-coupled mass spectrometry (LC–MS); set-up: dose 5 uM, timepoint 0, 1.5, 3, 6, 9, 12 hours; conditions: 5 µM
[10] = The drug is tested on Roseburia intestinalis strain: DSM14610 for biotransformation under anaerobic condition. The drug concentrations were measured over 6 timepoints collected between 0 and 12 hours of incubation by liquid-chromatography-coupled mass spectrometry (LC–MS); set-up: dose 5 uM, timepoint 0, 1.5, 3, 6, 9, 12 hours; conditions: 5 µM
[11] = The drug is tested on Streptococcus mitis strain: DSM12643 for biotransformation under anaerobic condition. The drug concentrations were measured over 6 timepoints collected between 0 and 12 hours of incubation by liquid-chromatography-coupled mass spectrometry (LC–MS); set-up: dose 5 uM, timepoint 0, 1.5, 3, 6, 9, 12 hours; conditions: 5 µM
[12] = The drug is tested on Enterococcus faecalis strain: ATCC29212 for biotransformation under anaerobic condition. The drug concentrations were measured over 6 timepoints collected between 0 and 12 hours of incubation by liquid-chromatography-coupled mass spectrometry (LC–MS); set-up: dose 5 uM, timepoint 0, 1.5, 3, 6, 9, 12 hours; conditions: 5 µM
[13] = The drug is tested on Akkermansia muciniphila strain: DSM22959 for biotransformation under anaerobic condition. The drug concentrations were measured over 6 timepoints collected between 0 and 12 hours of incubation by liquid-chromatography-coupled mass spectrometry (LC–MS); set-up: dose 5 uM, timepoint 0, 1.5, 3, 6, 9, 12 hours; conditions: 5 µM
[14] = The drug is tested on Actinomyces naeslundi strain: DSM43013 for biotransformation under microaerobic condition. The drug concentrations were measured over 6 timepoints collected between 0 and 12 hours of incubation by liquid-chromatography-coupled mass spectrometry (LC–MS); set-up: dose 5 uM, timepoint 0, 1.5, 3, 6, 9, 12 hours; conditions: actinomyces naeslundii, 5 µM
[15] = The drug is tested on Capnocytophaga ochracea strain: DSM7271 for biotransformation under microaerobic condition. The drug concentrations were measured over 6 timepoints collected between 0 and 12 hours of incubation by liquid-chromatography-coupled mass spectrometry (LC–MS); set-up: dose 5 uM, timepoint 0, 1.5, 3, 6, 9, 12 hours; conditions: 5 µM
[16] = The drug is tested on Lactobacillus reuteri strain: DSM20016 for biotransformation under microaerobic condition. The drug concentrations were measured over 6 timepoints collected between 0 and 12 hours of incubation by liquid-chromatography-coupled mass spectrometry (LC–MS); set-up: dose 5 uM, timepoint 0, 1.5, 3, 6, 9, 12 hours; conditions: limosilactobacillus reuteri, 5 µM
[17] = The drug is tested on Lactobacillus ruminis strain: ATCC25644 for biotransformation under microaerobic condition. The drug concentrations were measured over 6 timepoints collected between 0 and 12 hours of incubation by liquid-chromatography-coupled mass spectrometry (LC–MS); set-up: dose 5 uM, timepoint 0, 1.5, 3, 6, 9, 12 hours; conditions: ligilactobacillus ruminis, 5 µM
[18] = The drug is tested on Streptococcus anginosus strain: DSM20563 for biotransformation under microaerobic condition. The drug concentrations were measured over 6 timepoints collected between 0 and 12 hours of incubation by liquid-chromatography-coupled mass spectrometry (LC–MS); set-up: dose 5 uM, timepoint 0, 1.5, 3, 6, 9, 12 hours; conditions: 5 µM
[19] = The drug is tested on the gut metagenome community of A-06 with ENA study accession number: PRJEB31790 for biotransformation under anaerobic condition. The drug concentrations were measured over 7 timepoints collected between 0 and 12 hours of incubation by liquid-chromatography-coupled mass spectrometry (LC–MS); set-up: dose 5 uM, timepoint 0, 0.75, 1.5, 3, 6, 9, 12 hours; conditions: 5 µM
[20] = The drug is tested on the gut metagenome community of P-02 with ENA study accession number: PRJEB31790 for biotransformation under anaerobic condition. The drug concentrations were measured over 7 timepoints collected between 0 and 12 hours of incubation by liquid-chromatography-coupled mass spectrometry (LC–MS); set-up: dose 5 uM, timepoint 0, 0.75, 1.5, 3, 6, 9, 12 hours; conditions: 5 µM
[21] = The drug is tested on the gut metagenome community of P-04 with ENA study accession number: PRJEB31790 for biotransformation under anaerobic condition. The drug concentrations were measured over 7 timepoints collected between 0 and 12 hours of incubation by liquid-chromatography-coupled mass spectrometry (LC–MS); set-up: dose 5 uM, timepoint 0, 0.75, 1.5, 3, 6, 9, 12 hours; conditions: 5 µM
[22] = The drug is tested on the gut metagenome community of T-02 with ENA study accession number: PRJEB31790 for biotransformation under anaerobic condition. The drug concentrations were measured over 7 timepoints collected between 0 and 12 hours of incubation by liquid-chromatography-coupled mass spectrometry (LC–MS); set-up: dose 5 uM, timepoint 0, 0.75, 1.5, 3, 6, 9, 12 hours; conditions: 5 µM
[23] = The drug is tested on the gut metagenome community of A-06 with ENA study accession number: PRJEB31790 for biotransformation under microaerobic condition. The drug concentrations were measured over 7 timepoints collected between 0 and 12 hours of incubation by liquid-chromatography-coupled mass spectrometry (LC–MS); set-up: dose 5 uM, timepoint 0, 0.75, 1.5, 3, 6, 9, 12 hours; conditions: 5 µM
[24] = The drug is tested on the gut metagenome community of P-02 with ENA study accession number: PRJEB31790 for biotransformation under microaerobic condition. The drug concentrations were measured over 7 timepoints collected between 0 and 12 hours of incubation by liquid-chromatography-coupled mass spectrometry (LC–MS); set-up: dose 5 uM, timepoint 0, 0.75, 1.5, 3, 6, 9, 12 hours; conditions: 5 µM
[25] = The drug is tested on the gut metagenome community of T-03 with ENA study accession number: PRJEB31790 for biotransformation under microaerobic condition. The drug concentrations were measured over 7 timepoints collected between 0 and 12 hours of incubation by liquid-chromatography-coupled mass spectrometry (LC–MS); set-up: dose 5 uM, timepoint 0, 0.75, 1.5, 3, 6, 9, 12 hours; conditions: 5 µM
[26] = The drug is tested on the gut metagenome community of T-05 with ENA study accession number: PRJEB31790 for biotransformation under microaerobic condition. The drug concentrations were measured over 7 timepoints collected between 0 and 12 hours of incubation by liquid-chromatography-coupled mass spectrometry (LC–MS); set-up: dose 5 uM, timepoint 0, 0.75, 1.5, 3, 6, 9, 12 hours; conditions: 5 µM

CCOc1nc2cccc(C(=O)O)c2n1Cc1ccc(-c2ccccc2-c2nnn[nH]2)cc1
Bacterial Biotransformation [1]: Compound NOT metabolized
Bacterial Biotransformation [2]: Compound NOT metabolized
Bacterial Biotransformation [3]: Compound NOT metabolized
Bacterial Biotransformation [4]: Compound NOT metabolized
Bacterial Biotransformation [5]: Compound NOT metabolized
Bacterial Biotransformation [6]: Compound NOT metabolized
Bacterial Biotransformation [7]: Compound NOT metabolized
Bacterial Biotransformation [8]: Compound NOT metabolized
Bacterial Biotransformation [9]: Compound NOT metabolized
Bacterial Biotransformation [10]: Compound NOT metabolized
Bacterial Biotransformation [11]: Compound NOT metabolized
Bacterial Biotransformation [12]: Compound NOT metabolized
Bacterial Biotransformation [13]: Compound NOT metabolized
Bacterial Biotransformation [14]: Compound NOT metabolized
Bacterial Biotransformation [15]: Compound NOT metabolized
Bacterial Biotransformation [16]: Compound NOT metabolized
Bacterial Biotransformation [17]: Compound NOT metabolized
Bacterial Biotransformation [18]: Compound NOT metabolized
Bacterial Biotransformation [19]: Compound NOT metabolized
Bacterial Biotransformation [20]: Compound NOT metabolized
Bacterial Biotransformation [21]: Compound NOT metabolized
Bacterial Biotransformation [22]: Compound NOT metabolized
Bacterial Biotransformation [23]: Compound NOT metabolized
Bacterial Biotransformation [24]: Compound NOT metabolized
Bacterial Biotransformation [25]: Compound NOT metabolized
Bacterial Biotransformation [26]: Compound NOT metabolized

CCOC(=O)C1=C(COCCN)NC(C)=C(C(=O)OC)C1c1ccccc1Cl (stereo unspecified) [AMLODIPINE]
Bacterial Biotransformation [1]: Compound NOT metabolized
Bacterial Biotransformation [2]: Compound NOT metabolized
Bacterial Biotransformation [3]: Compound NOT metabolized
Bacterial Biotransformation [4]: Compound NOT metabolized
Bacterial Biotransformation [6]: Compound NOT metabolized
Bacterial Biotransformation [7]: Compound NOT metabolized
Bacterial Biotransformation [8]: Compound NOT metabolized
Bacterial Biotransformation [9]: Compound NOT metabolized
Bacterial Biotransformation [10]: Compound NOT metabolized
Bacterial Biotransformation [11]: Compound NOT metabolized
Bacterial Biotransformation [12]: Compound NOT metabolized
Bacterial Biotransformation [13]: Compound NOT metabolized
Bacterial Biotransformation [14]: Compound NOT metabolized
Bacterial Biotransformation [15]: Compound NOT metabolized
Bacterial Biotransformation [16]: Compound NOT metabolized
Bacterial Biotransformation [17]: Compound NOT metabolized
Bacterial Biotransformation [18]: Compound metabolized
Bacterial Biotransformation [19]: Compound NOT metabolized
Bacterial Biotransformation [20]: Compound NOT metabolized
Bacterial Biotransformation [21]: Compound NOT metabolized
Bacterial Biotransformation [22]: Compound NOT metabolized
Bacterial Biotransformation [23]: Compound NOT metabolized
Bacterial Biotransformation [24]: Compound NOT metabolized
Bacterial Biotransformation [25]: Compound NOT metabolized
Bacterial Biotransformation [26]: Compound NOT metabolized
